Patent US11098063B2, “Diazabicyclic substituted imidazopyrimidines and their use for the treatment of breathing disorders” (Bayer Aktiengesellschaft, priority 2017, dated 2021)

Legend:
human TASK-3 = human TASK-3 (Homo sapiens (Human), UniProt Q9NPC2); test: Inhibition of recombinant TASK-3 in stably transfected CHO cells (voltage-sensitive dye, KCl depolarization); type: cell-based; settings: depolarization by 40 mM potassium chloride
Experimental: (§1) B-2. Inhibition of Recombinant TASK-1 and TASK-3 In Vitro
(§2) The investigations on the inhibition of the recombinant TASK-1 and TASK-3 channels were conducted using stably transfected CHO cells. The compounds according to the invention were tested in this case by application of 40 mM potassium chloride in the presence of a voltage-sensitive dye according to the method described in detail in the following references [Whiteaker et al., Validation of FLIPR membrane potential dye for high-throughput screening of potassium channel modulators, J. Biomol. Screen. 6 (5), 305-312 (2001); Molecular Devices FLIPR Application Note: Measuring membrane potential using the FLIPR® membrane potential assay kit on Fluorometric Imaging Plate Reader (FLIPR®) systems, http://www.moleculardevices.com/reagents-supplies/assay-kits/ion-channels/flipr-membrane-potential-assay-kits]. The activity of the test substances was determined as their ability to inhibit a depolarization induced in the recombinant cells by 40 mM potassium chloride. The concentration which can block half of this depolarization is referred to as IC50.

human TASK-1 = human TASK-1 (Homo sapiens (Human), UniProt O14649); test: Inhibition of recombinant TASK-1 in stably transfected CHO cells (voltage-sensitive dye, KCl depolarization); type: cell-based; settings: depolarization by 40 mM potassium chloride
Experimental: as §1, §2

Chain of human TASK-3 (Q9NPC2 whole entry): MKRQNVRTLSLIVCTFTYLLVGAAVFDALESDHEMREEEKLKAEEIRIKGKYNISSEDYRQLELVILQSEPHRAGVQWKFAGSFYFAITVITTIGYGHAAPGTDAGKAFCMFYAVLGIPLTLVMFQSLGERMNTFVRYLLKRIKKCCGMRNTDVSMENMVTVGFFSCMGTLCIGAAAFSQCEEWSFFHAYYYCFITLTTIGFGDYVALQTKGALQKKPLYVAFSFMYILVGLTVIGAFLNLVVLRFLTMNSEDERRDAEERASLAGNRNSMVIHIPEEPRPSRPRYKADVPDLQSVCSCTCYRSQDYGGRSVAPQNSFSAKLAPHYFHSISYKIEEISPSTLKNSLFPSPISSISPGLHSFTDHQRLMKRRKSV
Chain of human TASK-1 (O14649 whole entry): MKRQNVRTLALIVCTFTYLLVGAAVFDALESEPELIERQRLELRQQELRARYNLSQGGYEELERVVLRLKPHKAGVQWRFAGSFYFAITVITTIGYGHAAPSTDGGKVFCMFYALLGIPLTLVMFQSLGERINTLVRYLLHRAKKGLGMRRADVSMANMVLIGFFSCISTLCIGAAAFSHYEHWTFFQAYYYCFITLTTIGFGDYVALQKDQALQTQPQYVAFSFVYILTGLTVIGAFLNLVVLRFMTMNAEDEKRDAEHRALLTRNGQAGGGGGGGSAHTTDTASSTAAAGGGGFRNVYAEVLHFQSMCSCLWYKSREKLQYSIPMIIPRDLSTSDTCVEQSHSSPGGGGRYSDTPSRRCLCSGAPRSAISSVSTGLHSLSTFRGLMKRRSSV

Row | SMILES | IC50 (human TASK-3) [nM] | IC50 (human TASK-1) [µM]
1 | Cc1nc(C)c(C(=O)N2C3CCC2CN(Cc2c(-c4ccc(Cl)cc4)nc4ncccn24)C3)o1 [Example 50] | 430 | 3.3
2 | Cc1sc(C(=O)N2C3CCC2CN(Cc2c(-c4ccc(Cl)cc4)nc4ncccn24)C3)nc1Br [Example 52] | 52 | 1.3
3 | O=C(c1ncoc1C1CC1)N1C2CCC1CN(Cc1c(-c3ccc(Cl)cc3)nc3ncccn13)C2 [Example 53] | 19 | 0.62
4 | CC(C)c1nc(C(=O)N2C3CCC2CN(Cc2c(-c4ccc(Cl)cc4)nc4ncccn24)C3)cs1 [Example 54] | 13 | 0.86
5 | O=C(c1cncs1)N1C2CCC1CN(Cc1c(-c3ccc(Cl)cc3)nc3ncccn13)C2 [Example 55] | 170 | 2.9
6 | Cc1nc(C(=O)N2C3CCC2CN(Cc2c(-c4ccc(Cl)cc4)nc4ncccn24)C3)c(C)o1 [Example 56] | 54 | 5.6
7 | COc1nc(C(F)(F)F)c(C(=O)N2C3CCC2CN(Cc2c(-c4ccc(Cl)cc4)nc4ncccn24)C3)s1 [Example 57] | 57 | 6.4
8 | O=C(c1csc(C(F)(F)F)n1)N1C2CCC1CN(Cc1c(-c3ccc(Cl)cc3)nc3ncccn13)C2 [Example 58] | 17 | 1.6
9 | Cc1scnc1C(=O)N1C2CCC1CN(Cc1c(-c3ccc(Cl)cc3)nc3ncccn13)C2 [Example 59] | 39 | 3
10 | O=C(c1nc(C(F)(F)F)cs1)N1C2CCC1CN(Cc1c(-c3ccc(Cl)cc3)nc3ncccn13)C2 [Example 60] | 430 | 0.67
11 | O=C(c1cscn1)N1C2CCC1CN(Cc1c(-c3ccc(Cl)cc3)nc3ncccn13)C2 [Example 61] | 640 | 3
12 | CNc1cccc(C(=O)N2C3CCC2CN(Cc2c(-c4ccc(C(C)C)cc4)nc4ncccn24)C3)n1 [Example 62] | 70 | 6.9
13 | COc1cccc(C(=O)N2C3CCC2CN(Cc2c(-c4ccc(C(C)C)cc4)nc4ncccn24)C3)n1 [Example 63] | 15 | 1.7
14 | CC(C)c1ccc(-c2nc3ncccn3c2CN2CC3CCC(C2)N3C(=O)c2ccccc2F)cc1 [Example 64] | 8.4 | 1.1
15 | COc1cccc(C(=O)N2C3COCC2CN(Cc2c(-c4ccc(C(C)C)cc4)nc4ncccn24)C3)n1 [Example 66] | 20 | 3.7
16 | COc1ccc(Cl)c(C(=O)N2C3COCC2CN(Cc2c(-c4ccc(C(C)C)cc4)nc4ncccn24)C3)n1 [Example 67] | 17 | 1.2
17 | CC(C)c1ccc(-c2nc3ncccn3c2CN2CC3COCC(C2)N3C(=O)c2ccccc2F)cc1 [Example 68] | 87 | 9.4
18 | COc1ccc(Cl)c(C(=O)N2CC3CCC2CN3Cc2c(-c3ccc(C(C)C)cc3)nc3ncccn23)n1 (stereo not shown) [Example 69] | 22 | 2.8
19 | CC(C)c1ccc(-c2nc3ncccn3c2CN2CC3CCC2CN3C(=O)c2ncoc2C2CC2)cc1 (stereo not shown) [Example 70] | 20 | 1.9

Row | SMILES | IC50 (human TASK-3) [nM] | IC50 (human TASK-1) [µM]
20 | COc1ccc(F)c(C(=O)N2CC3CCC2CN3Cc2c(-c3ccc(C(C)C)cc3)nc3ncccn23)n1 (stereo not shown) [Example 71] | 110 | 14
21 | COc1ccc(F)c(C(=O)N2CC3CCC2CN3Cc2c(-c3ccc(C(C)C)cc3)nc3ncccn23)n1 (stereo not shown) [Example 72] | 29 | 2.1
22 | COc1cccc(C(=O)N2CC3CCC2CN3Cc2c(-c3ccc(C(C)C)cc3)nc3ncccn23)n1 (stereo not shown) [Example 73] | 81 | 9.1
23 | COc1cccc(C(=O)N2CC3CCC2CN3Cc2c(-c3ccc(C(C)C)cc3)nc3ncccn23)n1 (stereo not shown) [Example 74] | 61 | 3.4
24 | CC(C)c1ccc(-c2nc3ncccn3c2CN2CC3CCC2CN3C(=O)c2cccc(OC(F)F)n2)cc1 (stereo not shown) [Example 75] | 51 | 3.8
25 | CC(C)c1ccc(-c2nc3ncccn3c2CN2CC3CCC2CN3C(=O)c2cccc(OC(F)F)n2)cc1 (stereo not shown) [Example 76] | 56 | 13
26 | COc1ccc(C)c(C(=O)N2CC3CCC2CN3Cc2c(-c3ccc(C(C)C)cc3)nc3ncccn23)n1 (stereo not shown) [Example 77] | 4.9 | 0.72
27 | COc1ccc(C)c(C(=O)N2CC3CCC2CN3Cc2c(-c3ccc(C(C)C)cc3)nc3ncccn23)n1 (stereo not shown) [Example 78] | 24 | 3.8
28 | COc1ccc(F)c(C(=O)N2CC3CCC2CN3Cc2c(-c3ccc(Br)cc3)nc3ncccn23)n1 (stereo not shown) [Example 81] | 21 | 0.82
29 | COc1ccc(F)c(C(=O)N2C3CCC2CN(Cc2c(-c4ccc(Br)cc4)nc4ncccn24)C3)n1 [Example 82] | 37 | 0.67
30 | O=C(c1ccccc1F)N1C2CCC1CN(Cc1c(-c3ccc(Br)cc3)nc3ncccn13)C2 [Example 83] | 14 | 0.25
31 | O=C(C1CCCC1)N1C2CCC1CN(Cc1c(-c3ccc(Br)cc3)nc3ncccn13)C2 [Example 84] | 4.6 | 0.093
32 | O=C(Nc1ccc(F)cc1F)N1C2CCC1CN(Cc1c(-c3ccc(Cl)cc3)nc3ncccn13)C2 [Example 85, 3-{[2-(4-Chlorophenyl)imidazo[1,2-a]pyrimidin-3-yl]methyl}-N-(2,4-difluorophenyl)-3,8-diazabicyclo[3.2.1]octane-8-carboxamide] | 1000 | 30
33 | CC(C)NC(=O)N1C2CCC1CN(Cc1c(-c3ccc(Cl)cc3)nc3ncccn13)C2 [Example 86, 3-{[2-(4-chlorophenyl)imidazo[1,2-a]pyrimidin-3-yl]methyl}-N-isopropyl-3,8-diazabicyclo[3.2.1]octane-8-carboxamide] | 430 | 7.7
34 | O=C(Nc1cccc(Cl)c1)N1C2CCC1CN(Cc1c(-c3ccc(Cl)cc3)nc3ncccn13)C2 [Example 89, N-(3-chlorophenyl)-3-{[2-(4-chlorophenyl)imidazo[1,2-a]pyrimidin-3-yl]methyl}-3,8-diazabicyclo[3.2.1]octane-8-carboxamide] | 850 | 30
35 | O=C(Nc1c(Cl)cccc1Cl)N1C2CCC1CN(Cc1c(-c3ccc(Cl)cc3)nc3ncccn13)C2 [Example 91, 3-{[2-(4-chlorophenyl)imidazo[1,2-a]pyrimidin-3-yl]methyl}-N-(2,6-dichlorophenyl)-3,8-diazabicyclo[3.2.1]octane-8-carboxamide] | 410 | 20
36 | Cc1cccc(C)c1NC(=O)N1C2CCC1CN(Cc1c(-c3ccc(Cl)cc3)nc3ncccn13)C2 [Example 92, 3-{[2-(4-chlorophenyl)imidazo[1,2-a]pyrimidin-3-yl]methyl}-N-(2,6-dimethylphenyl)-3,8-diazabicyclo[3.2.1]octane-8-carboxamide] | 270 | 15
37 | O=C(Nc1ccccc1F)N1C2CCC1CN(Cc1c(-c3ccc(Cl)cc3)nc3ncccn13)C2 [Example 93, 3-{[2-(4-chlorophenyl)imidazo[1,2-a]pyrimidin-3-yl]methyl}-N-(2-fluorophenyl)-3,8-diazabicyclo[3.2.1]octane-8-carboxamide] | 260 | 12
38 | O=C(Nc1cccc(Cl)c1Cl)N1C2CCC1CN(Cc1c(-c3ccc(Cl)cc3)nc3ncccn13)C2 [Example 94, 3-{[2-(4-chlorophenyl)imidazo[1,2-a]pyrimidin-3-yl]methyl}-N-(2,3-dichlorophenyl)-3,8-diazabicyclo[3.2.1]octane-8-carboxamide] | 160 | 30
